Columns and labels:
PKMYT1 = target: T1, PKMYT1 (Homo sapiens, UniProt Q99640); assay: Inhibition assay for PKMYT1 enzyme activity (ADP-Glo); type: biochemical; details: MYT1 2 ng/μL, ATP 25 μM, substrate CDK1 20 ng/μL, 40 min reaction, read-out: IC50 values of compounds for PKMYT1 inhibition activity
T1 sequence (Q99640 1-499): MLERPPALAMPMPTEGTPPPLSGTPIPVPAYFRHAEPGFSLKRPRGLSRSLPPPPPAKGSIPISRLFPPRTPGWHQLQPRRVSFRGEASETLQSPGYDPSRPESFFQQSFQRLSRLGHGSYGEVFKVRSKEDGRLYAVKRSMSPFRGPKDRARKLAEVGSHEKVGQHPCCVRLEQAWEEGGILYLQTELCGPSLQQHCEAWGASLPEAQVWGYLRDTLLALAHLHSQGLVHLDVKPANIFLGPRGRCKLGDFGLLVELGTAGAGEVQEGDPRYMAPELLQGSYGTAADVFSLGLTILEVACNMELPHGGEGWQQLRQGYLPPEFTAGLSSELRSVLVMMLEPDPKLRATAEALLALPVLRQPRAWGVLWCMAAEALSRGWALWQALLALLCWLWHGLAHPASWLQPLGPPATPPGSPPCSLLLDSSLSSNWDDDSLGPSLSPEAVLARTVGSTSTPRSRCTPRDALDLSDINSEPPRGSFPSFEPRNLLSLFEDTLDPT
Protocol: Experimental principle: After co-incubation of PKMYT1 with the compound, the substrate CDK1 was phosphorylated under the action of ATP. ADP produced by the reaction was quantified using an ADP-Glo™ assay kit from Promega to reflect the enzyme activity.
Experimental method: Using the Echo liquid handler, the test compound was diluted to different concentrations in dimethyl sulfoxide (DMSO) and transferred to a 384-well plate. Thus, the final concentration of the compound in the reaction system started at 1 μM and was subjected to a 3-fold serial dilution, with the final DMSO concentration maintained at 1%. 50 nL/well of the test compound solution was added. 3 μL/well of MYT1 diluted with Kinase Dilution Buffer was then added. […] After incubation for 30 min, the fluorescence signal values were measured using an Envision microplate reader.
The % compound inhibition was calculated and fitted using XLfit software to obtain the IC50 value of the compound. […]
Herein, the experimental well, blank well, and DMSO group refer to the fluorescence signal values recorded from the experimental group, blank group, and DMSO group, respectively.
The inhibitory activity of the compounds of the present application on PKMYT1 was determined by the above assay, and the IC50 values obtained are as shown in Table 1.

HCC1569 cells = assay: Inhibition of tumor cell proliferation (CTG, HCC1569); type: cell-based; details: Homo sapiens, 168 h, 7 days incubation, CTG readout, read-out: IC50 of compounds for inhibition of HCC1569 cell growth
Protocol: Experimental principle: The compound was incubated with tumor cells for 7 days, and ATP in viable cells was quantified using the CTG kit from Promega to evaluate the effect of the compound on tumor cell proliferation.
Experimental method: The cultured cells were resuspended after being rinsed with PBS (for adherent cells) and digested with 0.25% Trypsin-EDTA, followed by cell counting to determine cell density and viability. 3000 HCC1569 cells/well were diluted with RPMI Medium 1640 containing 10% FBS, added to a 96-well plate (90 μL/well), and cultured in an incubator at 37° C. with 5% CO2 for 24 h. The test compound was diluted to different concentrations in dimethyl sulfoxide (DMSO) and added to a 96-well plate. Thus, the final concentration of the compound in the reaction system started at 25 μM and was subjected to a 4-fold serial dilution, with the final DMSO concentration maintained at 0.25%. The compound and cells were further incubated at 37° C. with 5% CO2 for 7 days. 50 μL/well of CTG was then added to measure the inhibitory effect of the compound on tumor cell growth, and the inhibition rate and half-maximal inhibitory concentration (IC50) were calculated.
The % compound inhibition was calculated and fitted using XLfit software to obtain the IC50 of the compound.
Blank wells and DMSO wells were set up. The blank well contained 100 μL of RPMI Medium 1640 with 10% FBS, where the inhibition rate of the compound on tumor cell growth was considered 100%. The DMSO well contained 0.25% DMSO added to the cell well, where the inhibition rate of the compound on tumor cell growth was considered 0%.

SMILES	IC50 (PKMYT1) [nM]	IC50 (HCC1569 cells) [nM]
Cc1ccc(O)c(C)c1-n1c(N)c2c3c(ncnc31)-c1ccccc1NC2=O [Compound 1, 5-amino-4-(3-hydroxy-2,6-dimethylphenyl)-4,7-dihydro-6H-1,3,4,7-tetraazadibenzo[cd,f]azulen-6-one]	8.8	42
Cc1nc2c3c(c(N)n(-c4c(C)ccc(O)c4C)c3n1)C(=O)Nc1ccccc1-2 [Compound 2, 5-amino-4-(3-hydroxy-2,6-dimethylphenyl)-2-methyl-4,7-dihydro-6H-1,3,4,7-tetraazadibenzo[cd,f]azulen-6-one]	5.7	22
Cc1nc2c3c(c(N)n(-c4c(C)ccc(O)c4C)c3n1)C(=O)NCc1c-2ccnc1OC(F)F [Compound 39, 2-amino-6-(difluoromethoxy)-1-(3-hydroxy-2,6-dimethylphenyl)-11-methyl-4,5-dihydro-1,4,7,10,12-pentaazabenzo[4,5]cyclooctatetraeno[1,2,3-cd]inden-3(1H)-one]	–	81.9
Cc1nc2c3c(c(N)n(-c4c(C)ccc(O)c4C)c3n1)C(=O)NCc1c-2ccnc1OCF [Compound 40, 2-amino-6-(fluoromethoxy)-1-(3-hydroxy-2,6-dimethylphenyl)-11-methyl-4,5-dihydro-1,4,7,10,12-pentaazabenzo[4,5]cyclooctatetraeno[1,2,3-cd]inden-3(1H)-one]	–	87.6
Cc1nc2c3c(c(N)n(-c4c(C)ccc(O)c4C)c3n1)C(=O)NCc1c-2ccnc1OC(F)(F)F [Compound 41, 2-amino-1-(3-hydroxy-2,6-dimethylphenyl)-11-methyl-6-(trifluoromethoxy)-4,5-dihydro-1,4,7,10,12-pentaazabenzo[4,5]cyclooctatetraeno[1,2,3-cd]inden-3(1H)-one]	–	86.1
Cc1nc2c3c(c(N)n(-c4c(C)ccc(O)c4C)c3n1)C(=O)Nc1c-2cnn1C(F)F [Compound 42, 5-amino-8-(difluoromethyl)-4-(3-hydroxy-2,6-dimethylphenyl)-2-methyl-7,8-dihydro-1,3,4,7,8,9-hexaazabenzo[cd]cyclopenta[f]azulen-6(4H)-one]	–	46.3
COCCn1ncc2c1NC(=O)c1c(N)n(-c3c(C)ccc(O)c3C)c3nc(C)nc-2c13 [Compound 43, 5-amino-4-(3-hydroxy-2,6-dimethylphenyl)-8-(2-methoxyethyl)-2-methyl-7,8-dihydro-1,3,4,7,8,9-hexaazabenzo[cd]cyclopenta[f]azulen-6(4H)-one]	–	291
Cc1ccc(O)c(C)c1-n1c(N)c2c3c(c(C)c(C)nc31)-c1nn(C)cc1NC2=O [Compound 44, 5-amino-4-(3-hydroxy-2,6-dimethylphenyl)-1,2,9-trimethyl-7,9-dihydro-3,4,7,9,10-pentaazabenzo[cd]cyclopenta[f]azulen-6(4H)-one]	–	55.2
Cc1nc2c3c(c(N)n(-c4c(C)ccc(O)c4C)c3n1)C(=O)NCc1c-2ccnc1C#N [Compound 45, 2-amino-1-(3-hydroxy-2,6-dimethylphenyl)-11-methyl-3-oxo-1,3,4,5-tetrahydro-1,4,7,10,12-pentaazabenzo[4,5]cyclooctatetraeno[1,2,3-cd]indene-6-carbonitrile]	–	194
Cc1nc2c3c(c(N)n(-c4c(C)ccc(O)c4C)c3n1)C(=O)NCc1c-2ccnc1C1CC1 [Compound 46, 2-amino-6-cyclopropyl-1-(3-hydroxy-2,6-dimethylphenyl)-11-methyl-4,5-dihydro-1,4,7,10,12-pentaazabenzo[4,5]cyclooctatetraeno[1,2,3-cd]inden-3(1H)-one]	–	113
CCOc1nccc2c1CNC(=O)c1c(N)n(-c3c(C)ccc(O)c3C)c3nc(C)nc-2c13 [Compound 47, 2-amino-6-ethoxy-1-(3-hydroxy-2,6-dimethylphenyl)-11-methyl-4,5-dihydro-1,4,7,10,12-pentaazabenzo[4,5]cyclooctatetraeno[1,2,3-cd]inden-3(1H)-one]	–	32
Cc1nc2c3c(c(N)n(-c4c(C)ccc(O)c4C)c3n1)C(=O)NCc1c-2ccc(F)c1C#N [Compound 49, 2-amino-7-fluoro-1-(3-hydroxy-2,6-dimethylphenyl)-11-methyl-3-oxo-1,3,4,5-tetrahydro-1,4,10,12-tetraazabenzo[4,5]cyclooctatetraeno[1,2,3-cd]inden-6-carbonitrile]	–	20.9

Reference: patent US20260125389A1, “MEMBRANE-ASSOCIATED TYROSINE AND THREONINE KINASE INHIBITOR AND USE THEREOF” (HAINAN SIMCERE ZAIMING PHARMACEUTICAL CO., LTD., priority 2022, published 2026)
